Measurements from ChEMBL document CHEMBL4138160, “Biphenylthiazole antibiotics with an oxadiazole linker: An approach to improve physicochemical properties and oral bioavailability” (Eur J Med Chem, 2018).
Values after ≈ are worked out from the molar mass of the structure shown. Active and inactive are the calls of the source. The calls are words filed in the database; no cut-off is given here.

How the values were obtained:
[1] = system: Staphylococcus aureus; assay: Antibacterial activity against methicillin-resistant Staphylococcus aureus 2658 RCMB after 20 hrs by broth microdilution method; format: functional
[2] = system: Pseudomonas aeruginosa; assay: Antibacterial activity against Pseudomonas aeruginosa ATCC 15442 after 20 hrs by broth microdilution method; format: functional; conditions: ATCC 15442, 20 h
[3] = system: Enterobacter cloacae; assay: Antibacterial activity against Enterobacter cloacae BAA-1154 after 20 hrs by broth microdilution method; format: functional; conditions: BAA-1154, 20 h
[4] = system: Enterococcus faecium; assay: Antibacterial activity against vancomycin-resistant Enterococcus faecium ATCC 700221 after 20 hrs by broth microdilution method; format: functional; conditions: ATCC 700221, 20 h
[5] = system: Klebsiella pneumoniae; assay: Antibacterial activity against Klebsiella pneumoniae BAA-1706 after 20 hrs by broth microdilution method; format: functional; conditions: BAA-1706, 20 h
[6] = system: Staphylococcus aureus; assay: Antibacterial activity against Staphylococcus aureus NRS119 clinical isolate after 20 hrs by broth microdilution method; format: functional; conditions: NRS119, 20 h
[7] = system: Acinetobacter baumannii; assay: Antibacterial activity against Acinetobacter baumannii ATCC 19606 after 20 hrs by broth microdilution method; format: functional; conditions: ATCC 19606 = CIP 70.34 = JCM 6841, 20 h
[8] = system: Staphylococcus aureus; assay: Antibacterial activity against Staphylococcus aureus NRS119 clinical isolate after 18 to 20 hrs by broth microdilution method; format: functional
[9] = system: Staphylococcus aureus; assay: Antibacterial activity against methicillin-resistant Staphylococcus aureus USA300 NRS384 by broth microdilution method
[10] = system: Staphylococcus aureus; assay: Antibacterial activity against methicillin-resistant Staphylococcus aureus USA300 NRS384 at sub MIC after 4 passages by broth microdilution method
[11] = Aqueous solubility in PBS after 2 hrs; format: physicochemical; conditions: buffer
[12] = system: Staphylococcus aureus; assay: Antibacterial activity against Staphylococcus aureus RN4220 NRS107 clinical isolate after 18 to 20 hrs by broth microdilution method; format: functional
[13] = system: Staphylococcus aureus; assay: Antibacterial activity against Staphylococcus aureus VRS11a clinical isolate after 20 hrs by broth microdilution method; format: functional
[14] = system: Staphylococcus aureus; assay: Antibacterial activity against Staphylococcus aureus VRS12 clinical isolate after 20 hrs by broth microdilution method; format: functional; conditions: VRS12, 20 h
[15] = system: BHK-21; assay: Cytotoxicity against BHK21 cells assessed as decrease in cell viability after 6 hrs by MTT assay; format: cell-based; conditions: Mesocricetus auratus, BHK-21, 6 h
[16] = system: BHK-21; assay: Cytotoxicity against BHK21 cells assessed as decrease in cell viability after 24 hrs by MTT assay; format: cell-based; conditions: Mesocricetus auratus, BHK-21, 24 h
[17] = system: Staphylococcus aureus; assay: Antibacterial activity against methicillin-resistant Staphylococcus aureus USA300 NRS384 at sub MIC after 14 passages over 2 weeks by broth microdilution method; format: functional, organism-based
[18] = Ratio of non cytotoxic concentration against human HRT18 cells to MIC for methicillin-resistant Staphylococcus aureus 2658 RCMB; format: toxicity, cell-based
[19] = system: Staphylococcus aureus; assay: Potency index, ratio of vancomycin MIC to test compound MIC for Staphylococcus aureus VRS11a clinical isolate; format: functional
[20] = Ratio of Cmax in Sprague-Dawley rat at 25 mg/kg administered via oral gavage to MIC for methicillin-resistant Staphylococcus aureus 2658 RCMB; format: ADME, organism-based; conditions: in vivo
[21] = system: Staphylococcus aureus; assay: Potency index, ratio of vancomycin MIC to test compound MIC for Staphylococcus aureus VRS12 clinical isolate; format: functional
[22] = system: Staphylococcus aureus; assay: Bactericidal activity against methicillin-resistant Staphylococcus aureus USA300 at 4 times MIC after 12 hrs by time kill assay; format: functional
[23] = system: Rattus norvegicus; assay: Cmax in Sprague-Dawley rat at 25 mg/kg administered via oral gavage measured over 24 hrs by LC-MS/MS analysis; format: ADME, organism-based; parameters: dose 25 mg/kg, route oral; conditions: in vivo
[24] = system: Staphylococcus aureus; assay: Antibacterial activity against Staphylococcus aureus USA400 NRS123 clinical isolate after 20 hrs by broth microdilution method; format: functional; conditions: USA400 NRS123, 20 h
[25] = system: Staphylococcus aureus; assay: Antibacterial activity against Staphylococcus aureus RN4220 NRS107 clinical isolate after 20 hrs by broth microdilution method; format: functional; conditions: RN4220 NRS107, 20 h
[26] = system: HRT-18 cell line; assay: Cytotoxicity against human HRT18 cells assessed as decrease in cell viability at 512 ug/ml after 2 hrs by MTS assay; format: cell-based; conditions: hrt-18, 2 h
[27] = system: Rattus norvegicus; assay: Tmax in Sprague-Dawley rat at 25 mg/kg administered via oral gavage measured over 24 hrs by LC-MS/MS analysis; format: ADME, organism-based; conditions: in vivo
[28] = system: Staphylococcus aureus; assay: Bactericidal activity against methicillin-resistant Staphylococcus aureus USA300 at 4 times MIC after 24 hrs by time kill assay; format: functional, organism-based
[29] = Half life in Sprague-Dawley rat at 25 mg/kg administered via oral gavage measured over 24 hrs by LC-MS/MS analysis; format: ADME, organism-based; conditions: in vivo
[30] = AUClast in Sprague-Dawley rat at 25 mg/kg administered via oral gavage measured over 24 hrs by LC-MS/MS analysis; format: ADME, organism-based; parameters: dose 25 mg/kg, route oral, time 0 - last; conditions: in vivo
[31] = system: Enterococcus faecalis; assay: Antibacterial activity against vancomycin-resistant Enterococcus faecalis ATCC 51299 after 20 hrs by broth microdilution method; format: functional; conditions: ATCC 51299, 20 h
[32] = system: Rattus norvegicus; assay: Oral bioavailability in Sprague-Dawley rat at 25 mg/kg administered via gavage measured over 24 hrs by LC-MS/MS analysis; format: ADME, organism-based; conditions: in vivo
[33] = system: Staphylococcus aureus; assay: Antibacterial activity against Staphylococcus aureus VRS10 clinical isolate after 20 hrs by broth microdilution method; format: functional; conditions: VRS10, 20 h
[34] = system: HRT-18 cell line; assay: Cytotoxicity against human HRT18 cells assessed as decrease in cell viability up to 256 ug/ml after 2 hrs by MTS assay; format: cell-based; conditions: hrt-18, 2 h

Structure (SMILES): Cc1nc(-c2ccc(-c3ccccc3)cc2)sc1-c1nnc(N2CCC2)o1
- MIC [1]: > 25 µg/mL

Structure (SMILES): Cc1nc(-c2ccc(-c3ccccc3)cc2)sc1-c1nnc(NC(=N)N2CCCC2)o1
- MIC [1]: 12.5 µg/mL (≈ 29 µM)

Structure (SMILES): Cc1nc(-c2ccc(-c3ccccc3)cc2)sc1-c1nnc(NC2CCCC2)o1
- MIC [1]: > 25 µg/mL

Structure (SMILES): CC(=O)NC[C@H]1CN(c2ccc(N3CCOCC3)c(F)c2)C(=O)O1 [LINEZOLID]
- MIC [2]: > 64 µg/mL
- MIC [3]: > 64 µg/mL
- MIC [4]: 1 µg/mL (≈ 2.96 µM)
- MIC [5]: > 64 µg/mL
- MIC [6]: > 128 µg/mL
- MIC [7]: > 64 µg/mL
- MIC [8]: > 128 µg/mL

Structure (SMILES): CCN(CC)c1nnc(-c2sc(-c3ccc(-c4ccccc4)cc3)nc2C)o1
- MIC [1]: > 25 µg/mL

Structure (SMILES): CNc1nnc(-c2sc(-c3ccc(-c4ccccc4)cc3)nc2C)o1
- MIC [1]: 12.5 µg/mL (≈ 35.9 µM)

Structure (SMILES): Cc1nc(-c2ccc(-c3ccccc3)cc2)sc1-c1nnc(N(C)C)o1
- MIC [1]: > 25 µg/mL

Structure (SMILES): CO[C@H]1/C=C/O[C@@]2(C)Oc3c(C)c(O)c4c(O)c(c(/C=N/N5CCN(C)CC5)c(O)c4c3C2=O)NC(=O)/C(C)=C\C=C\[C@H](C)[C@H](O)[C@@H](C)[C@@H](O)[C@@H](C)[C@H](OC(C)=O)[C@@H]1C [RIFAMPIN]
- MIC [9]: 0.006 µg/mL (≈ 0.00729 µM)
- MIC [10]: 1.6 µg/mL (≈ 1.94 µM)

Structure (SMILES): CNC(=N)Nc1nnc(-c2sc(-c3ccc(-c4ccccc4)cc3)nc2C)o1
- solubility [11]: 89 µM (≈ 34.8 µg/mL)
- MIC [1]: 1.56 µg/mL (≈ 4 µM)

Structure (SMILES): Cc1nc(-c2ccc(-c3ccccc3)cc2)sc1-c1nnc(N2CCN(C)CC2)o1
- solubility [11]: 45 µM (≈ 18.8 µg/mL)
- MIC [1]: 1.56 µg/mL (≈ 3.74 µM)

Structure (SMILES): C/C(=C\C(=O)OCCCCCCCCC(=O)O)C[C@@H]1OC[C@H](C[C@@H]2O[C@H]2[C@@H](C)[C@H](C)O)[C@@H](O)[C@H]1O [MUPIROCIN]
- MIC [12]: 1020 µg/mL (≈ 2050 µM)

Structure (SMILES): CN[C@H](CC(C)C)C(=O)N[C@H]1C(=O)N[C@@H](CC(N)=O)C(=O)N[C@H]2C(=O)N[C@H]3C(=O)N[C@H](C(=O)N[C@H](C(=O)O)c4cc(O)cc(O)c4-c4cc3ccc4O)[C@H](O)c3ccc(c(Cl)c3)Oc3cc2cc(c3O[C@@H]2O[C@H](CO)[C@@H](O)[C@H](O)[C@H]2O[C@H]2C[C@](C)(N)[C@H](O)[C@H](C)O2)Oc2ccc(cc2Cl)[C@H]1O [VANCOMYCIN]
- MIC [13]: > 512 µg/mL
- MIC [14]: > 512 µg/mL
- MIC [4]: > 64 µg/mL
- MIC [1]: 1.56 µg/mL (≈ 1.08 µM)

Structure (SMILES): CCNc1nnc(-c2sc(-c3ccc(-c4ccccc4)cc3)nc2C)o1
- MIC [1]: > 25 µg/mL

Structure (SMILES): Cc1nc(-c2ccc(-c3ccccc3)cc2)sc1-c1nnc(NC(=N)N)o1
- solubility [11]: 128 µM (≈ 48.2 µg/mL)
- IC50 [15]: > 1000 µg/mL
- MIC [1]: 1.56 µg/mL (≈ 4.14 µM)
- IC50 [16]: 45 µg/mL (≈ 119 µM)

Structure (SMILES): Cc1nc(-c2ccc(-c3ccccc3)cc2)sc1-c1nnc(NC(=N)N2CCN(C)CC2)o1
- MIC [2]: > 64 µg/mL
- solubility [11]: 104 µM (≈ 47.8 µg/mL)
- Activity [17]: Active
- MIC [3]: > 64 µg/mL
- selectivity ratio [18]: > 400
- MIC [13]: 16 µg/mL (≈ 34.8 µM)
- Ratio [19]: 30
- Ratio [20]: 6
- MIC [14]: 16 µg/mL (≈ 34.8 µM)
- Ratio [21]: 30
- Activity [22]: 3 deltalog10CFU/ml
- Cmax [23]: 6222.1 ng/mL
- MIC [4]: > 64 µg/mL
- MIC [24]: 16 µg/mL (≈ 34.8 µM)
- MIC [5]: > 64 µg/mL
- MIC [25]: 8 µg/mL (≈ 17.4 µM)
- Activity [26]: Non-Toxic
- Tmax [27]: 1.7 h
- Activity [28]: Active
- IC50 [15]: 398 µg/mL (≈ 866 µM)
- half-life [29]: 2.04 h
- MIC [1]: 1.17 µg/mL (≈ 2.55 µM)
- AUC(0-t) at 24 h [30]: 83200 ng·h/mL
- MIC [31]: > 64 µg/mL
- IC50 [16]: 45.7 µg/mL (≈ 99.4 µM)
- MIC [7]: > 64 µg/mL
- F [32]: 42.5%
- MIC [33]: 16 µg/mL (≈ 34.8 µM)

Structure (SMILES): Cc1nc(-c2ccc(-c3ccccc3)cc2)sc1-c1nnc(NC(=N)N2CCOCC2)o1
- Activity [17]: Active
- Activity [34]: Non-Toxic
- MIC [1]: 1.56 µg/mL (≈ 3.49 µM)

Structure (SMILES): C/C(=N\NC(=N)N)c1sc(-c2ccc(-c3ccccc3)cc2)nc1C
- solubility [11]: 2.7 µM (≈ 0.944 µg/mL)
- MIC [1]: 2.75 µg/mL (≈ 7.87 µM)

Structure (SMILES): Cc1nc(-c2ccc(-c3ccccc3)cc2)sc1-c1nnc(NC(=N)c2cccnc2)o1
- MIC [1]: > 25 µg/mL

Structure (SMILES): Cc1nc(-c2ccc(-c3ccccc3)cc2)sc1-c1nnc(NC(=N)c2ccncc2)o1
- MIC [1]: > 25 µg/mL

Structure (SMILES): Cc1nc(-c2ccc(-c3ccccc3)cc2)sc1-c1nnc(NC(C)C)o1
- MIC [1]: > 25 µg/mL

Structure (SMILES): Cc1nc(-c2ccc(-c3ccccc3)cc2)sc1-c1nnc(NC(=N)N2CCCCC2)o1
- MIC [1]: > 25 µg/mL

Structure (SMILES): Cc1nc(-c2ccc(-c3ccccc3)cc2)sc1-c1nnc(N2CCOCC2)o1
- MIC [1]: 12.5 µg/mL (≈ 30.9 µM)

Structure (SMILES): CCCNc1nnc(-c2sc(-c3ccc(-c4ccccc4)cc3)nc2C)o1
- MIC [1]: > 25 µg/mL

Structure (SMILES): Cc1nc(-c2ccc(-c3ccccc3)cc2)sc1-c1nnc(NC2CCCCC2)o1
- MIC [1]: > 25 µg/mL

Structure (SMILES): Cc1nc(-c2ccc(-c3ccccc3)cc2)sc1-c1nnc(NN)o1
- solubility [11]: 77 µM (≈ 26.9 µg/mL)
- MIC [1]: 3.12 µg/mL (≈ 8.93 µM)

Structure (SMILES): Cc1nc(-c2ccc(-c3ccccc3)cc2)sc1-c1ccnc(NC(=N)N)n1
- solubility [11]: 2.2 µM (≈ 0.85 µg/mL)

Structure (SMILES): CCCCc1ccc(-c2nc(C)c(/C(C)=N/NC(=N)N)s2)cc1
- F [32]: 0%

Structure (SMILES): Cc1nc(-c2ccc(-c3ccccc3)cc2)sc1-c1nnc(NC(=N)c2ccccn2)o1
- MIC [1]: > 25 µg/mL

Structure (SMILES): Cc1nc(-c2ccc(-c3ccccc3)cc2)sc1-c1nnc(N2CC(O)C2)o1
- solubility [11]: 150 µM (≈ 58.6 µg/mL)
- MIC [1]: 3.12 µg/mL (≈ 7.99 µM)

Structure (SMILES): CCCCNc1nnc(-c2sc(-c3ccc(-c4ccccc4)cc3)nc2C)o1
- MIC [1]: > 25 µg/mL

Structure (SMILES): Cc1nc(-c2ccc(-c3ccccc3)cc2)sc1-c1nnc(N2CCCC2)o1
- MIC [1]: > 25 µg/mL
